Experimental data reported in US20040109832A1, “Di-substituted resorcinols as skin lightening agents” (Unilever Home & Personal Care USA, Division Of Conopco, Inc., priority 2002, published 2004).

Tested on: T1, mushroom tyrosinase
T1 construct: mushroom tyrosinase (Sigma T-7755)
Test: Mushroom Tyrosinase Assay
Format: biochemical
Details: for skin lightening effectiveness (tyrosinase inhibition), in words: conclusion from Tables 8 and 9; for Percent of Control: slope ΔAbs 475 nm/min vs ethanol control; for IC50: L-DOPA substrate, absorbency at 475 nm, pH 7.0, read-out: IC50 (skin lightener concentration that results in 50% tyrosinase inhibition relative to the control)
Protocol: Mushroom tyrosinase inhibition is indicative of reduction in melanin synthesis, thereby showing skin lightening effect. […] Following an initial measurement of background absorbency at 475-nm, 20 microliters of mushroom tyrosinase (Sigma T-7755; 6050 units/ml) was added and incubated at room temperature. Absorbency is read at 475-nm over the following time points: 0, 2, 4, and 6.5 minutes. The data is plotted as 475-nm absorbency vs. time (minutes) and the slope of the line is calculated (ΔAbs 475 nm/ min).

[1] = Table 9, Concentration 1 micro M
[2] = Table 9, Concentration 10 micro M
[3] = Table 9, Concentration 50 micro M
[4] = Table 9, Concentration 100 micro M

| % of Control (Melanin Synthesis) [1] | % of Control (Melanin Synthesis) [2] | % of Control (Melanin Synthesis) [3] | % of Control (Melanin Synthesis) [4] | skin lightening effectiveness (tyrosinase inhibition), in words | Percent of Control (Concentration 0.0156 micro M) | Percent of Control (Concentration 0.0312 micro M) | Percent of Control (Concentration 0.0625 micro M) | Percent of Control (Concentration 0.125 micro M) | Percent of Control (Concentration 0.25 micro M) | Percent of Control (Concentration 0.5 micro M) | Percent of Control (Concentration 1 micro M) | Percent of Control (Concentration 10 micro M) | Percent of Control (Concentration 50 micro M) | Percent of Control (Concentration 100 micro M) | IC50 [µM] | skin lightening effectiveness (tyrosinase inhibition), in words (listed as 4,6-di-Isopropyl resorcinols) | SMILES |
| --- | --- | --- | --- | --- | --- | --- | --- | --- | --- | --- | --- | --- | --- | --- | --- | --- | --- |
| 95 % of Control | 51 % of Control | 35 % of Control | 15 % of Control | not as effective |  |  |  |  |  |  |  |  |  |  |  |  | Cc1cc(O)cc(O)c1C [4,5-di-Methyl Resorcinol, 4,5-dimethyl resorcinol] |
| 48 % of Control | 29 % of Control | 34 % of Control | 39 % of Control | comparable to 4-Ethyl Resorcinol | 96.7% of Control | 94.9% of Control | 93.1% of Control | 86.0% of Control | 75.2% of Control | 60.9% of Control | 48.4% of Control | 28.7% of Control | 34.0% of Control | 39.4% of Control | 0.75 | effective skin lightening compounds | CC(C)c1cc(C(C)C)c(O)cc1O [4,6-Diisopropyl Resorcinol, 4,6-di-isopropyl resorcinol] |
| 32 % of Control | 25 % of Control | 21 % of Control | 18 % of Control |  | 86% of Control | 82% of Control | 72% of Control | 64% of Control | 57% of Control | 43% of Control | 32% of Control | 25% of Control | 21% of Control | 18% of Control | 0.35 |  | CCc1ccc(O)cc1O [4-Ethyl Resorcinol, 4-ethyl resorcinol] |
| 27 % of Control | 29 % of Control | 29 % of Control | 30 % of Control | effective skin lightening compounds | 80.6% of Control | 60.9% of Control | 46.6% of Control | 35.8% of Control | 30.4% of Control | 28.7% of Control | 26.9% of Control | 28.7% of Control | 28.7% of Control | 30.4% of Control | ~0.05 |  | CC(C)c1ccc(O)cc1O [4-Isopropyl Resorcinol, 4-isopropyl resorcinol] |
| 98 % of Control | 98 % of Control | 100 % of Control | 100 % of Control | no activity |  |  |  |  |  |  |  |  |  |  |  |  | Oc1cccc(O)c1 [Resorcinol, resorcinol] |
